Key:
5-lipoxygenase = target: T1, 5-lipoxygenase (Mus musculus, UniProt P48999); assay: 5-lipoxygenase inhibition: release of LTC4 from zymosan-stimulated mouse peritoneal macrophage cells; type: cell-based; details: 10^-5 mol/l, read-out: In vitro % inhibition effect on the release of LTC4
T1 construct: A cell suspension containing peritoneal cells of male mice 8-10 weeks old was obtained; endogenous in cells; host or cells: mouse peritoneal macrophages (male mice 8-10 weeks old), zymosan-stimulated
T1 sequence (P48999 1-674): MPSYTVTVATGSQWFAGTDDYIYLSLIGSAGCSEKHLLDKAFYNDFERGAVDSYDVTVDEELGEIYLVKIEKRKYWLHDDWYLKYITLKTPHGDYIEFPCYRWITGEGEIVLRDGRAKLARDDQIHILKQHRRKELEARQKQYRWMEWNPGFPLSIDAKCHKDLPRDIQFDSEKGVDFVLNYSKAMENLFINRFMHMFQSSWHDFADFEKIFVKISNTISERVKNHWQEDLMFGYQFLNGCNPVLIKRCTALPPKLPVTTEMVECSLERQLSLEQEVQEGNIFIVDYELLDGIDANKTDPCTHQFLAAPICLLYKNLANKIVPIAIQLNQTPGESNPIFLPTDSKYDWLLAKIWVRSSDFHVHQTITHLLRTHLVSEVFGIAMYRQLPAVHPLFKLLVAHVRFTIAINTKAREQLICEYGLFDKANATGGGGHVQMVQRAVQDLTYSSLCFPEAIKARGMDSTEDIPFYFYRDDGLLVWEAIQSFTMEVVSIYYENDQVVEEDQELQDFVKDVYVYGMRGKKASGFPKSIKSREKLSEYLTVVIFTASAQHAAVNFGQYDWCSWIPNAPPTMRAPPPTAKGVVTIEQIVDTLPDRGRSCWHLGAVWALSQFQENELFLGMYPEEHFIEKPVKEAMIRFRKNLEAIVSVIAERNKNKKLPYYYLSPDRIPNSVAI
Source text: (§1) 5. In vitro determination of cyclooxygenase inhibition and 5-lipoxygenase inhibition.
(§2) After activation of the cell, arachidonic acid contained in cell membranes is metabolized in two ways. Leukotrienes, inter alia leukotriene C4, are formed under the action of the enzyme 5-lipoxygenase (5-LO), and prostanoids are formed under the action of the enzyme cyclooxygenase (CO). In in vitro systems, the metabolites are secreted from the cell.
(§3) To investigate the cyclooxygenase-inhibiting and the 5-lipoxygenase-inhibiting properties, the inhibitory effect of the test substances on the biosynthesis of the arachidonic acid derivatives leukotriene C4 (LTC4) and 6-ketoprostaglandin F1 α (6-keto-PGF1 α) is determined in vitro on mouse peritoneal macrophage cells. This was accomplished by determining the LTC4 and 6-keto-PGF1 α contents in a culture medium of mouse peritoneal macrophage cells by zymosan stimulation as described by Scott et al. (J. Exp. Med. 152 (1980), 324-335) and by Fradin et al. (Prostaglandins, 33 (1987), 579-589).
(§4) A cell suspension containing peritoneal cells of male mice 8-10 weeks old was obtained in a known manner. A commercially available cell culture solution (RPMI 1640 from Messrs. Gibco) was used to which heparin (I0 international units/ml) and antibiotics were added according to the recipe of Bonney et al. (Biochem. J. 176 (1978) 422-433). The cell suspension was adjusted to a cell concentration of 10^6 cells per ml and distributed uniformly on titer plates containing […] (wells). These were kept for two hours in a humidified incubator filled with air enriched with 7% CO2. Cells not adhering to the titer cell walls were then removed by washing. The remaining macrophage cells adhering to the walls were incubated for about 12 hours in a suspension medium to which 0.1% bovine serum albumin (BSA) were added. The suspension medium was then replaced by a Hanks balanced salt solution (HBSS) containing 10 mM Hepes (hydroxyethyl-piperazinoethanesulfonic acid), to which a 0.1% strength solution of the test substances in aqueous, 1% strength dimethylformamide or only the solvent had been added. After 15 minutes the arachidonic acid metabolism was stimulated by adding 10 particles of zymosan (=glycoproteinmixture, isolated from cell walls of beer yeast, Saccharomyces cerevisiae, manufactured by Sigma Chemical Co., Munich) per titer cell. After 2 hours, samples of each of the supernatant liquids were investigated for their 6-keto-PGF1 α and LTC4 contents by means of an enzyme immunoassay (EIA) carried out by the method of Pradelles et al. (Analytical Chem. 57 (1985), 1170-1173). The determination of LTC4 and the determination of 6-keto-PGF1 α were each carried out in comparison with a comparative scale on suitable dilutions of the samples (1:50 to 1:250 for the LTC4 determination and 1:250 to 1:1250 for the 6-keto-PGF1 α determination). To determine the inhibitory effect of a 10^-5 molar concentration of the compounds, the amount of reference eicosanoids was determined and the inhibitory effect was calculated from this in % inhibition compared to the measurements of the zymosan controls.

cyclooxygenase = target: T2, cyclooxygenase (Mus musculus, UniProt P22437); assay: Cyclooxygenase inhibition: release of 6-keto-PGF1 α from zymosan-stimulated mouse peritoneal macrophage cells; type: cell-based; details: 10^-5 mol/l, read-out: In vitro % inhibition effect on the release of 6-keto-PGF1 α
T2 construct: A cell suspension containing peritoneal cells of male mice 8-10 weeks old was obtained; endogenous in cells; host or cells: mouse peritoneal macrophages (male mice 8-10 weeks old), zymosan-stimulated
T2 sequence (P22437 27-602): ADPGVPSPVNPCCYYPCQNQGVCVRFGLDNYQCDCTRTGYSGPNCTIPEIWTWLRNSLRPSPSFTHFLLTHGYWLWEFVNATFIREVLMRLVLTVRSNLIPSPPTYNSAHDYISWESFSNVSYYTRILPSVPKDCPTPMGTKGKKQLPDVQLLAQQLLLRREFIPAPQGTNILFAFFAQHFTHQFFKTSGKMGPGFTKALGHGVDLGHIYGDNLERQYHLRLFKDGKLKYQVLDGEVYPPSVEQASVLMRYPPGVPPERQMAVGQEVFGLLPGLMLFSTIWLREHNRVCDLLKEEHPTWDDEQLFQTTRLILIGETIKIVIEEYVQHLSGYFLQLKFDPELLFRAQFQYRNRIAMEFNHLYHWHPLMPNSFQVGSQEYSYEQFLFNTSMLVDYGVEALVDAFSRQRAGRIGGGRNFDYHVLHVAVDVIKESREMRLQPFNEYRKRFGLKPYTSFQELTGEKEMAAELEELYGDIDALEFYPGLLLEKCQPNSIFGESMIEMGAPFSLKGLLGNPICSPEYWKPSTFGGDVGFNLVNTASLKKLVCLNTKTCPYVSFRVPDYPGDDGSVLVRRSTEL
Source text: as §1, §2, §3, §4

[1] = system: Passive cutaneous anaphylaxis (P.C.A.); assay: Inhibition of passive cutaneous anaphylaxis (P.C.A.); type: in vivo, rat (Sprague-Dawley); details: Rattus norvegicus, 1 h; rats, 2 × 10^-5 mol/kg p.o., one hour before ovalbumin challenge
Procedure: (§5) 1. Determination of the inhibition of passive cutaneous anaphylaxis (P.C.A.) and of the anaphylactoid cutaneous reaction induced by histamine.
The P.C.A. reaction was carried out according to the methods described by Goose et al. (J.N. Immunology 16 (1969), 749) and by Martin et al (Arch. Pharmacol. 316 (1981), 186}.
The IgE-rich ovalbumin antiserum used in the test was obtained from immunized Brown-Norway rats. For immunization, the rats were given an i.p. injection of a mixture of 100 μg of ovalbumin with a Bordetella pertussis suspension (Vaxicoq®, Manufacturer: Institut Merieux, containing 5×10^9 organisms and 1.25 mg of Al(OH)3). After 20 days, the animals received a further i.p. injection of a solution of 10 μg of ovaIbumin in 0.5 ml of physiological saline solution for reimmunisation. After a further four days, the animals were bled, and the blood was centrifuged The antiserum obtained in this way was stored at -20° C. until use.
(§6) The determination of the inhibition of passive cutaneous anaphylaxis and the anaphylactoid cutaneous reaction induced by histamine was carried out as follows:
Sprague-Dawley rats having a body weight of 150-180 g were injected intradermally in one flank with 50 μl of a 1:75 dilution of the IgE-rich ovalbumin antiserum in physiological sodium chloride solution for passive sensitization to ovalbumin.
24 hours after sensitization a solution of 8.25 mg/kg of ovalbumin and 26.4 mg/kg of a blue dye (Evans' Blue) was administered i.v. to the rats according to Martin et al. to induce passive cutaneous anaphylaxis. The ovalbumin challenge caused a local anaphylactic reaction at the site at which the antiserum had been injected.
(§7) On the test days, the test substances were dissolved in distilled water which contained 1% by volume of dimethylformamide and 1% by volume of Tween®20 (polyoxyethylene(20) sorbitan monolaurate). One hour before the challenging ovalbumin administration, each animal received 2×10^-5 mol/kg of test substance administered orally in 0.5 ml of solution. A control group received only the solvent for comparison.
(§8) The oedematous anaphylactic (P.C.A.) and anaphylactoid (histamine-induced) reactions caused by the challenging i.v. ovalbumin injection, which are manifested by oedema formation, swelling and exudation of blue dye, were evaluated 30 minutes after challenge by the i.v. ovalbumin injection. This was done by visual determination of the extent to which the blue dye emerges at the sites of oedema formation. The percentage inhibition of anaphylactic and anaphylactoid reactions caused by the test substances was determined in comparison with the reactions of the control animals not treated with test substance with the aid of comparison scales.
(§9) The results obtained by the above test methods using compounds of the formula I are shown in the following Table A. The example numbers given for the compounds of formula I relate to the following preparation examples.

[2] = system: P.A.F.-induced aggregation of platelets from rabbit blood; assay: Anti-P.A.F. effect in vitro: inhibition of P.A.F.-induced platelet aggregation; type: cell-based, rabbit (New Zealand hybrids); details: Oryctolagus cuniculus, Platelet, test substance concentration 10^-5 mol/l
Source text: 4. Determination of anti-P.A.F. effect in vitro.
Platelet-activating factor (P.A.F.) is a phospholipid mediator which has several effects. The activation of platelet aggregation leads to the induction of protracted broncho contractions and hyperreactivity of the airways.
The effects of the test substances on platelet aggregation induced by adding P.A.F. to a platelet suspension obtained from rabbit blood was investigated by the method described by Mikashima et al. (Jap. J. Pharmacol. 44 (1987) 387-391).
A suspension of platelets originating from rabbit blood was used which contained 4×10^9 platelets/ml in a modified Tyrode buffer solution adjusted to pH 7.4. Tyrode solution is an aqueous solution containing 136.9 mmol of NaCl, 2.68 mmol of KCl, 2.31 mmol of CaCl2, 1.0 mmol of MgCl2, 11.9 mmol of NaHCO3, 1.45 mmol of NaH2 PO4 and 5.55 mmol of glucose per liter. This solution was modified by adding 1.3 mM/l of CaCl2 and 2.5 g/l of gelatin. The platelets were obtained from 10 ml blood samples from each of three rabbits (New Zealand hybrids, body weight 3-4 kg). For this, the blood samples were treated with ethylenediaminetetraacetic acid and washed by the method of Artley et al. (Brit. J. Hamatol. 19 (1970), 7-17). A platelet-rich plasma was then initially separated by centrifugation (20 minutes at 400×g). The platelets were separated from the plasma by centrifuging again for 15 minutes at 1400×g. After centrifuging, the platelets remaining as a sediment were resuspended in a calcium-free Tyrode buffer solution. 0.4 mmol of lysine acetylsalicylate were then added and after 15 minutes the blood platelets were sedimented again. The sediment was resuspended in the abovementioned modified Tyrode buffer solution, and the number of platelets in the resulting suspension was adjusted to the desired content.
A 40×10^-9 molar P.A.F. solution was used as the reagent. This solution was prepared from a 1.8×10^-3 molar stock solution in chloroform. For this, a 10μl sample of the stock solution was evaporated to dryness and redissolved in 180 μl of the modified Tyrode solution, to which 0.25% of dilapidated bovine serum albumin had been added. 10^-5 molar working solutions were then prepared from this and stored frozen. Samples of these solutions were appropriately diluted for the tests.
To carry out the tests, 50 μl of the platelet solution and 10 μl of a 40×10^-5 molar solution of the compound to be investigated were added to 330 μl of the modified Tyrode buffer solution with stirring (1000 rpm) in an aggregation tube provided with a small magnetic stirrer. This corresponds to a final test substance concentration of 10^-5 mol/l. After a preincubation time of 90seconds, 10 μl of the P.A.F. preparation were added. The aggregation occurring in the aggregation tubes was measured for 4-5 minutes using a computerized aggregometer.
The aggregation occurring in the test tubes containing only platelet suspension was rated as 0%. The aggregation occurring in test tubes containing platelet suspension and P.A.F. preparation was rated as 100%. The aggregation which still occurred in the presence of the test substances (i.e. during inhibition of the P.A.F.-induced platelet aggregation increase) was measured, and the resulting aggregation inhibition is calculated from this in %.

[3] = Determination of the minimum toxic dose; set-up: species or system male mice; details: mouse, in vivo, po, 300 mg/kg, 1440 min
Procedure: 2. Determination of the minimum toxic dose.
Maximum doses of 300 mg/kg of the test substance were administered orally to male mice weighing 20-25 g. The animals were observed carefully for 3 hours for toxicity symptoms. In addition, all symptoms and deaths over a period of 24 hours after administration were recorded. Associated symptoms were also observed and recorded. If death or severe toxic symptoms were observed, further mice were administered increasingly lower doses. The lowest dose which caused death or severe toxic symptoms is given as the minimum toxic dose in the following Table B.

[4] = system: Histamine-induced anaphylactoid reactions; assay: Inhibition of anaphylactoid cutaneous reaction induced by histamine; type: in vivo, rat (Sprague-Dawley); details: Rattus norvegicus, 1 h; rats, 2 × 10^-5 mol/kg p.o., one hour before challenge; histamine intradermal
Procedure: as §5, §6
To determine the histamine-induced anaphylactoid skin reaction, the animals were injected intradermally in the flank opposite to the antiserum administration with 50 μl of a physiological saline solution containing 0.8 mg/ml of histamine directly before the i.v. injection of the solution containing the ovalbumin and the blue dye.
as §7, §8, §9

Row | SMILES | inhibition at 10 µM (5-lipoxygenase) [%] | inhibition at 10 µM (cyclooxygenase) [%] | inhibition in vivo at 20 µmol/kg [1] [%] | inhibition at 10 µM [2] [%] | Minimum toxic dose (lowest dose which caused death or severe toxic symptoms) [3] [mg/kg] | inhibition in vivo at 20 µmol/kg [4] [%]
1 | Cc1ccnc(N2CCN(CCc3c(C)n4c5c(cc(C(=O)c6ccc(Cl)cc6)cc35)CCC4)CC2)c1 [Example 82] | 9 | 58 |  |  |  | 
2 | Cc1ccnc(N2CCN(CCc3c(C)n4c5c(cc(CC6CCCCC6)cc35)CCC4)CC2)c1 [Example 84] | 20 | 46 |  |  |  | 
3 | Cc1ccnc(N2CCN(CCc3c(-c4ccccc4)n4c5c(cccc35)CCC4)CC2)c1 [Example 40] |  |  | 70 | 100 | 300 | 43
4 | Cc1c(CCN2CCC(C(=O)c3ccccc3)CC2)c2cccc3c2n1CCC3C (stereo not drawn) [Example 56] |  |  | 80 | 42 | 300 | 50

— patent US5324725A, “7-fused 2-(piperazinoalkyl) indole derivatives, intermediates and compositions thereof” (Kali-Chemie Pharma GmbH, priority 1991, dated 1994)
